The source of these data is ChEMBL document CHEMBL1201862, “PubChem BioAssay data set” (2004).

Molecules are shown by their SMILES. Calls of active or inactive are those of the source. A value given as a limit tells only on which side of the number the result lay.

In experiment [1] the target is Major prion protein (Homo sapiens, UniProt P04156). Type of experiment: functional, cell-based.
The nature of experiment [2]: cells.
Experiment [3] can be described thus: HGIII-sPLA2 enzyme inhibition potency – biochemical, QFRET, IC50, dose response (AID 743457).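 Note: green fluorescence rise as the enzyme cleaves BODIPY PC-A2 in liposomes.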
Experiment [4] addresses Kallikrein-7 (Homo sapiens, UniProt P49862). Put plainly: Fluorescence Intensity-based biochemical primary high throughput dose response assay to identify activators of kallikrein-7 (K7) zymogen.
A short description of experiment [5]: optical artefact potency, substrate without enzyme – biochemical, fluorescence intensity, triplicate, artefact control for kallikrein-7 zymogen activator project, dose response (AID 720493).
In experiment [6] the target is Paired box protein Pax-8 (Homo sapiens, UniProt Q06710). The experiment can be described thus: PAX8 transcriptional activity inhibition in RMG-I – RMG-I cells, luciferase, cherry-pick, dose response (AID 687027).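 Note: luciferase reporter driven by Pax8 target thyroperoxidase promoter measured by SteadyGlo luminescence.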 The class given is functional, cell-based.
Experiment [7] can be described thus: A2780 cell killing – plate reader, dry powder samples, cytotoxicity control, dose response (AID 743046). Type of experiment: functional, cell-based.
Experiment [8] is described as follows: CMV-driven luciferase expression suppression in HEK293 – cell-based, luminescence, dry powder, counter-screen for Pax8 inhibitor project, dose response (AID 743020). Type of experiment: functional. On the technique in general: Counterscreens check selectivity or assay interference.
Experiment [9] in a line: IGROV1 cell killing – plate reader, dry powder samples, PAX8 inhibitor project, dose response (AID 743043). Type of experiment: functional, cell-based. As to conditions: IGROV-1.
The nature of experiment [10]: OVCAR-3 cell viability loss – plate reader, dry powder samples, PAX8 inhibitor project, dose response (AID 743044). Type of experiment: functional, cell-based.
Experiment [11] is described as follows: OVCAR8 cell viability loss – plate reader, dry powder samples, PAX8 project, dose response (AID 743197). The class given is functional, cell-based. The following applies: OVCAR-8.
The test system of experiment [12] is HeLa. The experiment can be described thus: viability loss in HeLa cells – cell-based, ATP luminescence, cherry-pick samples, cytotoxicity control, dose response (AID 687004). Type of experiment: functional. As to conditions: Homo sapiens.
Experiment [13] in a line: HEK293 Cytotoxicity Assay Measured in Cell-Based System Using Plate Reader - 7071-01_Inhibitor_Dose_CherryPick_Activity_Set2. Type of experiment: functional.
Experiment [14] relates to HEK293. Put plainly: viability loss in HEK293T cells – cell-based, ATP luminescence, cherry-pick samples, cytotoxicity control, dose response (AID 687005).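 Note: cells exposed to compound for 48 hours.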 Type of experiment: functional. As to conditions: Homo sapiens.
In experiment [15] the target is Potassium channel subfamily K member 3 (Homo sapiens, UniProt O14649). Put plainly: inhibition of human KCNK3 channel flux – CHO cells, FluxOR thallium flux, SAR follow-up (AID 652212). The class given is functional.
The target in experiment [16] is Potassium channel subfamily K member 9 (Homo sapiens, UniProt Q9NPC2). The experiment can be described thus: KCNK9 flux blockade, concentration-response – cell-based, FluxOR thallium flux, selectivity assay for TASK1 inhibitor project, SAR follow-up (AID 652211).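 Note: potency is for inhibitors of the channel.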 Type of experiment: functional.
Experiment [17] can be described thus: Late stage assay provider results from the probe development effort to identify inhibitors of the Plasmodium falciparum M17 Leucine Aminopeptidase (M17LAP): radiolabel-based cell-based dose response assay to identify compounds that inhibit P. falciparum growth in RBCs Set 2. Type of experiment: functional.
Experiment [18] concerns HEK293. The experiment can be described thus: cells. As to conditions: Homo sapiens.
For experiment [19], the system named is HEK293. The experiment can be described thus: cells. As to conditions: Homo sapiens. The source holds these as a separate data set.
Experiment [20] can be described thus: Late stage assay provider results from the probe development effort to identify selective inhibitors of heat shock protein 90 (HSP90): Absorbance-based cell proliferation assay in MCF7 cells. The class given is functional.
Experiment [21] can be described thus: Late stage assay provider results from the probe development effort to identify selective inhibitors of heat shock protein 90 (HSP90): Absorbance-based cell proliferation assay in SKBR3 cells. The class given is functional. As to conditions: SK-BR-3.
The target in experiment [22] is Metabotropic glutamate receptor 5 (Rattus norvegicus, UniProt P31424). The experiment can be described thus: Identification of a glycine sulfonamide based non-MPEP site positive allosteric potentiator (PAM) of mGlu5 (calcium_assay). The class given is functional.

On to `Cc1ccc(S(=O)(=O)N2CCCCC2)cc1NC(=O)CSc1ncnc2ccccc12`, for which the values for the IC50 in experiment [1] and in experiment [2] were 5.6 µM (active) and > 138 µM (inactive), respectively.

As for `O=C1C(=O)N(Cc2ccc(-c3ccccc3)cc2)c2ccc(OC(F)(F)F)cc21`, the IC50 in experiment [3] is 32 µM (inactive).

On to `CCOC(=O)c1c(N)n(CCN2CCCCC2)c2nc3ccccc3nc12`, for which the EC50 in experiment [4] was 3.62 µM (active); in experiment [5] it was > 2.58 µM (active).

Consider `C[C@@H]1CCCCO[C@H](CN(C)Cc2ccc(C(F)(F)F)cc2)[C@@H](C)CN([C@@H](C)CO)C(=O)c2cc(NC(=O)Nc3ccc(F)cc3)ccc2O1`, for which the AC50 in experiment [6] was 5.36 µM (active); in experiment [7] it was 51.7 µM (active); in [8] it was 35.7 µM (active); in [9], 43.6 µM (active); in experiment [10] it was 21.4 µM (active); in [11], 32.1 µM (active).

Consider `COc1ccc(CN(C)C[C@H]2Oc3ccc(NC(=O)Nc4ccc(F)cc4)cc3CC(=O)N([C@@H](C)CO)C[C@@H]2C)cc1`, for which the AC50 is > 52 µM (inactive) in experiment [12], 26.3 µM (active) in [13] and 26.3 µM (active) in experiment [14].

Consider `Cc1cccc(C(=O)Nc2cccc(NC(=O)C3CCCCC3)c2)c1`, for which the IC50 in experiment [15] was 17 nM (active); in [16] it was 11.9 µM (active).

For the molecule `O=C(NO)c1ccc2ccccc2c1`, in [17], the IC50 is 15.7 µM (inactive).

Consider `O=C(NCCc1ccc(F)cc1)c1coc(=O)c(Br)c1`, for which the EC50 in experiment [18] and in [19] was > 59.7 µM (inactive) throughout. Further, the IC50 is 2.1 µM (active) in [20] and 5.3 µM (active) in [21].

`CS(=O)(=O)N1c2ccccc2CCC1C(=O)Nc1cccnc1` (configuration not stated): the EC50 in experiment [22] was 3.62 µM.

In general, IC50 refers to the concentration at which inhibition is half-maximal. The EC50 is the concentration needed to bring the measured effect to its halfway point. Usually AC50 stands for the midpoint of the concentration-response curve, whichever way the signal moves.
